Source: publication PMC9276676, “Difluoromethylornithine (DFMO) and AMXT 1501 inhibit capsule biosynthesis in pneumococci” (Scientific Reports, 2022)
Read-outs that look alike come from different tables or passages of the source.

Assays:
EF3030 = experiment: Viability/replication at 1/2 MIC DFMO (CFU on blood agar); assay type: cell-based, Streptococcus pneumoniae; settings: 1/2 MIC DFMO (137 mM)
Experimental: (§1) S. pneumoniae serotypes 4 (TIGR4), 2 (D39), 19F (EF3030) and 3 (WU2) were cultured in Todd Hewitt broth supplemented with yeast extract (THY). Supplementation with DFMO ranging from 1.1 to 549 mM was carried out in triplicate in a 96-well plate and incubated at 37 °C and 5% CO2 in a Cytation™ 5 cell imaging multi-mode reader (BioTek, Winooski, VT). The change in optical density at 600 nm (OD600) was measured every hour for 24 h and used to determine the minimum inhibitory concentration (MIC) of DFMO. The optical density data was analyzed using GrowthRates 4.0 software. To determine whether DFMO at sub-MIC is bacteriostatic or lethal to pneumococcal cells, all strains were cultured in the presence or absence of 1/2 MIC DFMO. OD600 was measured every hour and CFU were enumerated on a blood agar plate (BAP) every 2 h over an 8 h incubation period.

TIGR4 = experiment: as above; assay type: cell-based, Streptococcus pneumoniae; settings: 1/2 MIC DFMO (137 mM)
Experimental: as §1

D39 = experiment: as above; assay type: cell-based, Streptococcus pneumoniae; settings: 1/2 MIC DFMO (137 mM)
Experimental: as §1

[1] = system: TIGR4 (serotype 4) capsule; experiment: Total capsular polysaccharide (CPS) immunoblot with densitometry; assay type: cell-based, Streptococcus pneumoniae
Experimental: (§2) S. pneumoniae strains were cultured with DFMO and AMXT 1501 at varying final concentrations of 1/2, 1/4, and 1/8 MIC to OD600 0.2–0.3 either individually or together to estimate any additive or synergistic effects. Capsular polysaccharides (CPS) were extracted and quantified in triplicate, as described previously[26] with slight modification. Briefly, CPS was extracted in a lysis buffer (4% deoxycholate, 50 µg/mL DNAse I and 50 µg/mL RNAse A) at 37 °C for 10 min and centrifuged at 18,000×g for 10 min. The supernatant (2 µL) was spotted on a 0.2-µm-pore-size nitrocellulose membrane (Thermo Fisher Scientific, Waltham, MA, USA) and oven dried at 60 °C for 15 min. The membranes were blocked and incubated with different types of antisera for capsule detection: antisera type- 4 (for TIGR4), 2 (for D39), polyclonal (for EF3030) and 3 (for WU2) (Cedarlane, Burlington, NC, USA). A conjugated polyclonal goat anti-rabbit IgG-HRP (Agilent Technologies, Santa Clara, CA, USA) was used for enhanced chemiluminescence (ECL) detection in all the strains (Thermo Fisher Scientific, Waltham, MA, USA) and scanned using a ChemiDoc XRS+ with Image Lab software (Bio-Rad, Hercules, CA, USA). Densitometry analysis of the immunoblot was done with NIH ImageJ software.
(§3) We determined the impact of varying concentrations of DFMO (1/8 to 1/2 MIC) on CPS in all serotypes (2, 4, 19F, and 3) used in this study. […] D39 was treated with 1/8 MIC DFMO alone, 1/4 MIC agmatine (Agm) alone, a combination of 1/8 MIC DFMO and 1/4 MIC Agm, and a control without DFMO or Agm. CPS was extracted as described in the previous section and immunoblot analysis with type 2 antisera was performed to detect CPS semi-quantitatively.

WU2 (serotype 3) capsule = experiment: as above; assay type: cell-based, Streptococcus pneumoniae
Experimental: as §2, §3

D39 (serotype 2) capsule = experiment: as above; assay type: cell-based, Streptococcus pneumoniae
Experimental: as §2, §3

[2] = system: EF3030 (serotype 19F) capsule; experiment: as above; assay type: cell-based, Streptococcus pneumoniae
Experimental: as §2, §3

[3] = molecular target: SP_0916 (arginine decarboxylase, ADC) (Streptococcus pneumoniae, UniProt A0A0H2UPK4); experiment: Inhibition of decarboxylase activities of recombinant SP_0916 (LC-MS); assay type: biochemical; settings: 10 mM substrate, 15 min, 37 °C
SP_0916 (arginine decarboxylase, ADC), sequence (A0A0H2UPK4 entry or part of it): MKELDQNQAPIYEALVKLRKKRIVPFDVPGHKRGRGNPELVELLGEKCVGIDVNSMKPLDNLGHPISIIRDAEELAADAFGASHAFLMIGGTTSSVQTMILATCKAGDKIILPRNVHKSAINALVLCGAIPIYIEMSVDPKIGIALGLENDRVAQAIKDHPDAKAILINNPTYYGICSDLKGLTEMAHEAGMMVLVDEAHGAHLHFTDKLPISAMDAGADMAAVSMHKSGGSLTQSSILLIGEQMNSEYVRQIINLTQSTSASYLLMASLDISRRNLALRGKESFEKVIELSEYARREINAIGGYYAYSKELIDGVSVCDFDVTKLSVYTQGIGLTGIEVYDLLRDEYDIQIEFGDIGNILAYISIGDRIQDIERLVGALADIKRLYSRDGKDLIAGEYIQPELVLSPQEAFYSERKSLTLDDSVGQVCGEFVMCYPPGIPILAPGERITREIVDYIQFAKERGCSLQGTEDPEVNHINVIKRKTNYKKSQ
Source text: We determined the impact of DFMO (ODC/ADC inhibitor) and α-difluoromethylarginine (DFMA, an ADC inhibitor) on the decarboxylase activities of SP_0916. BL21(DE3) cells expressing recombinant His tag SP_0916 were lysed with B-PER reagent buffer (Thermo Fisher Scientific, Waltham, MA, USA), lysate separated by loading unto HisPur Cobalt Spin Column (Thermo Fisher Scientific, Waltham, MA, USA), desalted using Sephadex G-25 PD-10 column (GE Healthcare, Chicago, IL, USA), and protein concentration estimated using the Pierce BCA Protein Assay kit (Thermo Fisher Scientific, Waltham, MA, USA).
SP_0916-encoded protein (0.926 µmol L^−1) was mixed with 10 mM substrate (arginine, lysine or ornithine) in the reaction mixture (500 µL reaction volume, 50 mM Tris–HCl, pH 8.0) that contains 2.5 mM MgSO4 and 0.6 mM PLP. DFMO was diluted in water to 3–900 mM and added to the reaction mixture after 5 min preincubation at 37 °C in the dark. DFMA stock was made in a similar manner but was diluted in water to 0.3–1000 µM. The enzyme and inhibitor were incubated at 37 °C for 15 min in the dark and the reaction terminated with 0.3 M perchloric acid. After incubation on ice for 15 min, the samples were neutralized with 25 µL of 10 N KOH and extracted with 1 mL of 1-butanol. The organic layer was dried under nitrogen gas and reconstituted with 100 µL of water containing Spermidine-d8 and Glucose-d7 as an internal standard. Analysis of the extracts was performed on a Surveyor LC–MS system. 5 µL of reconstitution was injected to the LC–MS system for detection of the products (agmatine, cadaverine or putrescine). We used internal standards to normalize and determine the peak intensity (area ratio) for each metabolite detected. Enzyme activity without inhibitor is referred to as a control activity. All experiments were performed in triplicate. The concentration of inhibitor that inhibited 50% of the control activity (IC50 value) was determined by varying the concentration of the indicated DFMO or DFMA and measuring the decarboxylase activity. Sigma Plot v. 12 was used to fit the curve through the points and IC50 values were interpolated from the fitted curve.

Structure (SMILES): NCCC[C@](N)(C(=O)O)C(F)F [DFMO, α-difluoromethylornithine]
- effect on viability (viability curves) (EF3030): some bacteriostatic effect
- effect on viability (viability curves) (TIGR4): some bacteriostatic effect
- effect on viability (viability curves) (D39): some bacteriostatic effect
- less capsule compared to untreated controls (densitometry of immunoblots) [1]: approximately 85%
- inhibition of CPS ([1]; serotype 4, DFMO less than 137 mM): failed to inhibit CPS
- less capsule compared to untreated controls (densitometry of immunoblots) (WU2 (serotype 3) capsule): ~39%
- inhibition of CPS (WU2 (serotype 3) capsule; serotype 3, DFMO less than 137 mM): failed to inhibit CPS
- less capsule compared to untreated controls (densitometry of immunoblots) (D39 (serotype 2) capsule): ~71%
- concentration that inhibits CPS (D39 (serotype 2) capsule; D39, 1/8 MIC): 34 mM
- total CPS (capsule) by immunoblot (D39 (serotype 2) capsule; D39, DFMO 1/8 MIC 34 mM, agmatine 1/4 MIC 20 mM, AMXT 1501 1/2 MIC 7.4 µM, alone or with agmatine): inhibits the capsule production
- less capsule compared to untreated controls (densitometry of immunoblots) [2]: ~84%
- inhibition of CPS ([2]; serotype 19F, DFMO less than 137 mM): failed to inhibit CPS
- IC50 ([3]; DFMO IC50, ornithine to putrescine): 26.6 ± 4.1 mM
- IC50 ([3]; arginine to agmatine, read-out: DFMO IC50): 75.1 ± 5.5 mM
- IC50 ([3]; lysine to cadaverine, read-out: DFMO IC50): 8.2 ± 0.2 mM
